Measurements taken from ChEMBL document CHEMBL1201862, “PubChem BioAssay data set” (2004).
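Compound exposure: 48 hours, 5 concentrations, 96-well plates. GI50 = concentration required for 50% inhibition of growth.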 Activity calls are given as the source filed them. Rule as the data show it: active = GI50 up to about 1.1 µM and inactive = higher.

What was measured:
Test in all cases: NCI anticancer screen, dose series, 48 h
786-0 = tested on: 786-0
A498 = tested on: A498
A549 = tested on: A549
ACHN = tested on: ACHN
CCRF-CEM = tested on: CCRF-CEM
COLO 205 = tested on: COLO 205
DU-145 = tested on: DU-145
EKVX = tested on: EKVX
HCC 2998 = tested on: HCC 2998
HCT-116 = tested on: HCT-116
HCT-15 = tested on: HCT-15
HL-60 = tested on: HL-60
HOP-62 = tested on: HOP-62
HOP-92 = tested on: HOP-92
HT-29 = tested on: HT-29
Hs-578T = tested on: Hs-578T
IGROV-1 = tested on: IGROV-1
K562 = tested on: K562
KM12 = tested on: KM12
LOX IMVI = tested on: LOX IMVI
M14 = tested on: M14
MCF7 = tested on: MCF7
MDA-MB-231 = tested on: MDA-MB-231
MDA-MB-435 = tested on: MDA-MB-435
MDA-N = tested on: MDA-N
MOLT-4 = tested on: MOLT-4
Malme-3M = tested on: Malme-3M
NCI-H226 = tested on: NCI-H226
NCI-H23 = tested on: NCI-H23
NCI-H460 = tested on: NCI-H460
NCI-H522 = tested on: NCI-H522
NCI/ADR-RES = tested on: NCI/ADR-RES
OVCAR-3 = tested on: OVCAR-3
OVCAR-4 = tested on: OVCAR-4
OVCAR-5 = tested on: OVCAR-5
OVCAR-8 = tested on: OVCAR-8
PC-3 = tested on: PC-3
RPMI-8226 = tested on: RPMI-8226
RXF 393 = tested on: RXF 393
SF-268 = tested on: SF-268
SF-295 = tested on: SF-295
SF-539 = tested on: SF-539
SK-MEL-28 = tested on: SK-MEL-28
SK-MEL-5 = tested on: SK-MEL-5
SK-OV-3 = tested on: SK-OV-3
SN12C = tested on: SN12C
SNB-19 = tested on: SNB-19
SNB-75 = tested on: SNB-75
SR = tested on: SR
SW-620 = tested on: SW-620
T47D = tested on: T47D
TK-10 = tested on: TK-10
U-251 = tested on: U-251
UACC-257 = tested on: UACC-257
UACC-62 = tested on: UACC-62
UO-31 = tested on: UO-31
CAKI-1 = tested on: CAKI-1
SK-MEL-2 = tested on: SK-MEL-2

**Q.** For `Cc1ccc2c(c1)CC1(Cc3ccccc3C1=O)C2=O` (stereo unspecified), which GI50 (786-0) is on record?
**A.** > 100 µM (inactive)

**Q.** And the GI50 (A498)?
**A.** > 100 µM (inactive)

**Q.** And the GI50 (A549)?
**A.** > 100 µM (inactive)

**Q.** What about the GI50 (ACHN) of the same molecule?
**A.** > 100 µM (inactive)

**Q.** What about the GI50 (CCRF-CEM) of the same molecule?
**A.** > 100 µM (inactive)

**Q.** What about the GI50 (COLO 205) of the same molecule?
**A.** > 100 µM (inactive)

**Q.** What about the GI50 (DU-145) of the same molecule?
**A.** > 100 µM (inactive)

**Q.** What about the GI50 (EKVX) of the same molecule?
**A.** > 100 µM (inactive)

**Q.** What about the GI50 (HCC 2998) of the same molecule?
**A.** > 100 µM (inactive)

**Q.** And the GI50 (HCT-116)?
**A.** > 100 µM (inactive)

**Q.** What about the GI50 (HCT-15) of the same molecule?
**A.** > 100 µM

**Q.** What about the GI50 (HL-60) of the same molecule?
**A.** > 100 µM (inactive)

**Q.** And the GI50 (HOP-62)?
**A.** 44.4 µM (inactive)

**Q.** What about the GI50 (HOP-92) of the same molecule?
**A.** 64.3 µM (inactive)

**Q.** What about the GI50 (HT-29) of the same molecule?
**A.** > 100 µM (inactive)

**Q.** And the GI50 (Hs-578T)?
**A.** > 100 µM (inactive)

**Q.** And the GI50 (IGROV-1)?
**A.** > 100 µM (inactive)

**Q.** And the GI50 (K562)?
**A.** > 100 µM (inactive)

**Q.** What about the GI50 (KM12) of the same molecule?
**A.** > 100 µM (inactive)

**Q.** What about the GI50 (LOX IMVI) of the same molecule?
**A.** > 100 µM (inactive)

**Q.** And the GI50 (M14)?
**A.** > 100 µM (inactive)

**Q.** What about the GI50 (MCF7) of the same molecule?
**A.** > 100 µM (inactive)

**Q.** And the GI50 (MDA-MB-231)?
**A.** > 100 µM (inactive)

**Q.** What about the GI50 (MDA-MB-435) of the same molecule?
**A.** > 100 µM (inactive)

**Q.** What about the GI50 (MDA-N) of the same molecule?
**A.** > 100 µM (inactive)

**Q.** And the GI50 (MOLT-4)?
**A.** > 100 µM (inactive)

**Q.** What about the GI50 (Malme-3M) of the same molecule?
**A.** > 100 µM (inactive)

**Q.** What about the GI50 (NCI-H226) of the same molecule?
**A.** > 100 µM (inactive)

**Q.** What about the GI50 (NCI-H23) of the same molecule?
**A.** > 100 µM (inactive)

**Q.** What about the GI50 (NCI-H460) of the same molecule?
**A.** > 100 µM (inactive)

**Q.** What about the GI50 (NCI-H522) of the same molecule?
**A.** > 100 µM (inactive)

**Q.** What about the GI50 (NCI/ADR-RES) of the same molecule?
**A.** > 100 µM (inactive)

**Q.** And the GI50 (OVCAR-3)?
**A.** > 100 µM (inactive)

**Q.** And the GI50 (OVCAR-4)?
**A.** > 100 µM (inactive)

**Q.** What about the GI50 (OVCAR-5) of the same molecule?
**A.** 55.6 µM (inactive)

**Q.** And the GI50 (OVCAR-8)?
**A.** > 100 µM (inactive)

**Q.** What about the GI50 (PC-3) of the same molecule?
**A.** > 100 µM (inactive)

**Q.** What about the GI50 (RPMI-8226) of the same molecule?
**A.** > 100 µM (inactive)

**Q.** What about the GI50 (RXF 393) of the same molecule?
**A.** > 100 µM (inactive)

**Q.** What about the GI50 (SF-268) of the same molecule?
**A.** > 100 µM (inactive)

**Q.** And the GI50 (SF-295)?
**A.** > 100 µM (inactive)

**Q.** And the GI50 (SF-539)?
**A.** > 100 µM (inactive)

**Q.** What about the GI50 (SK-MEL-28) of the same molecule?
**A.** > 100 µM (inactive)

**Q.** And the GI50 (SK-MEL-5)?
**A.** > 100 µM (inactive)

**Q.** And the GI50 (SK-OV-3)?
**A.** > 100 µM (inactive)

**Q.** What about the GI50 (SN12C) of the same molecule?
**A.** > 100 µM (inactive)

**Q.** And the GI50 (SNB-19)?
**A.** > 100 µM (inactive)

**Q.** And the GI50 (SNB-75)?
**A.** > 100 µM (inactive)

**Q.** What about the GI50 (SR) of the same molecule?
**A.** > 100 µM (inactive)

**Q.** And the GI50 (SW-620)?
**A.** > 100 µM (inactive)

**Q.** And the GI50 (T47D)?
**A.** > 100 µM (inactive)

**Q.** And the GI50 (TK-10)?
**A.** > 100 µM (inactive)

**Q.** What about the GI50 (U-251) of the same molecule?
**A.** > 100 µM (inactive)

**Q.** And the GI50 (UACC-257)?
**A.** > 100 µM (inactive)

**Q.** What about the GI50 (UACC-62) of the same molecule?
**A.** > 100 µM (inactive)

**Q.** And the GI50 (UO-31)?
**A.** > 100 µM (inactive)

**Q.** With `O=C(O)[C@H](Cc1ccccc1)NCCN1CCC[C@H]1C(=O)O` as the molecule, how does the GI50 (786-0) read?
**A.** > 100 µM (inactive)

**Q.** What about the GI50 (A498) of the same molecule?
**A.** 42.6 µM (inactive)

**Q.** And the GI50 (A549)?
**A.** > 100 µM (inactive)

**Q.** What about the GI50 (CAKI-1) of the same molecule?
**A.** > 100 µM (inactive)

**Q.** What about the GI50 (COLO 205) of the same molecule?
**A.** 37.6 µM (inactive)

**Q.** And the GI50 (DU-145)?
**A.** > 100 µM (inactive)

**Q.** What about the GI50 (HCT-116) of the same molecule?
**A.** > 100 µM (inactive)

**Q.** What about the GI50 (HCT-15) of the same molecule?
**A.** 22.2 µM

**Q.** What about the GI50 (HOP-62) of the same molecule?
**A.** > 100 µM (inactive)

**Q.** And the GI50 (HOP-92)?
**A.** 1.91 µM (inactive)

**Q.** What about the GI50 (HT-29) of the same molecule?
**A.** 26.2 µM (inactive)

**Q.** What about the GI50 (K562) of the same molecule?
**A.** 1.53 µM (inactive)

**Q.** What about the GI50 (KM12) of the same molecule?
**A.** > 100 µM (inactive)

**Q.** What about the GI50 (M14) of the same molecule?
**A.** > 100 µM (inactive)

**Q.** And the GI50 (MCF7)?
**A.** > 100 µM (inactive)

**Q.** What about the GI50 (MDA-MB-231) of the same molecule?
**A.** > 100 µM (inactive)

**Q.** And the GI50 (MDA-MB-435)?
**A.** > 100 µM (inactive)

**Q.** And the GI50 (MDA-N)?
**A.** > 100 µM (inactive)

**Q.** What about the GI50 (MOLT-4) of the same molecule?
**A.** 99.8 µM (inactive)

**Q.** What about the GI50 (Malme-3M) of the same molecule?
**A.** 49.8 µM (inactive)

**Q.** And the GI50 (NCI-H23)?
**A.** > 100 µM (inactive)

**Q.** And the GI50 (NCI-H460)?
**A.** 42.1 µM (inactive)

**Q.** What about the GI50 (NCI-H522) of the same molecule?
**A.** > 100 µM (inactive)

**Q.** And the GI50 (NCI/ADR-RES)?
**A.** > 100 µM (inactive)

**Q.** And the GI50 (OVCAR-3)?
**A.** > 100 µM (inactive)

**Q.** What about the GI50 (OVCAR-4) of the same molecule?
**A.** 3.74 µM (inactive)

**Q.** What about the GI50 (OVCAR-5) of the same molecule?
**A.** > 100 µM (inactive)

**Q.** What about the GI50 (OVCAR-8) of the same molecule?
**A.** > 100 µM (inactive)

**Q.** What about the GI50 (PC-3) of the same molecule?
**A.** > 100 µM (inactive)

**Q.** And the GI50 (RPMI-8226)?
**A.** > 100 µM (inactive)

**Q.** What about the GI50 (RXF 393) of the same molecule?
**A.** > 100 µM (inactive)

**Q.** What about the GI50 (SF-268) of the same molecule?
**A.** > 100 µM (inactive)

**Q.** And the GI50 (SF-295)?
**A.** > 100 µM (inactive)

**Q.** What about the GI50 (SF-539) of the same molecule?
**A.** > 100 µM (inactive)

**Q.** What about the GI50 (SK-MEL-28) of the same molecule?
**A.** > 100 µM (inactive)

**Q.** What about the GI50 (SK-MEL-2) of the same molecule?
**A.** > 100 µM (inactive)

**Q.** And the GI50 (SK-MEL-5)?
**A.** > 100 µM (inactive)

**Q.** What about the GI50 (SK-OV-3) of the same molecule?
**A.** > 100 µM (inactive)

**Q.** What about the GI50 (SN12C) of the same molecule?
**A.** > 100 µM (inactive)

**Q.** And the GI50 (SNB-19)?
**A.** > 100 µM (inactive)

**Q.** What about the GI50 (SW-620) of the same molecule?
**A.** 80.4 µM (inactive)

**Q.** What about the GI50 (T47D) of the same molecule?
**A.** > 100 µM (inactive)

**Q.** And the GI50 (U-251)?
**A.** > 100 µM (inactive)

**Q.** What about the GI50 (UACC-62) of the same molecule?
**A.** 70.8 µM (inactive)

**Q.** What about the GI50 (UO-31) of the same molecule?
**A.** 32.4 µM (inactive)
